Experimental findings from PMC13376213, “Systematic discovery of motif-based interactions of the auxiliary domains of USP family deubiquitinases” (Nature Communications, 2026) are described below.

One assay has as its target T1, USP33 zf-UBP domain (Homo sapiens, UniProt Q8TEY7).
T1 construct: USP33_UBP; Q8TEY7; zf-UBP; 36; 130; 6xHis-GST (N, cleaved yes); made in house; host or cells: Escherichia coli BL21-Gold (DE3)
T1 sequence (Q8TEY7 with tags, fused parts or gaps): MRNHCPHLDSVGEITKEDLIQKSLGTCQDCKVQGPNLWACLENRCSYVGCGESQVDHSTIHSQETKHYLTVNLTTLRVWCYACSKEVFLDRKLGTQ
Briefly: FP-monitored affinity measurements, USP33 zf-UBP. The format is binding.

A further assay has as its target T2, USP22 zf-UBP domain (Homo sapiens, UniProt Q9UPT9).
T2 construct: USP22_zf-UBP; Q9UPT9; zf-UBP; 37; 130; 6xHis-GST (N, cleaved yes); made in house; host or cells: Escherichia coli BL21-Gold (DE3)
T2 sequence (Q9UPT9 37-130): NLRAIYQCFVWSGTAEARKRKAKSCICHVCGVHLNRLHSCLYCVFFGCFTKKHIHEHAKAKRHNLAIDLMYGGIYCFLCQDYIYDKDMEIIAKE
Briefly: FP-monitored affinity measurements, USP22 zf-UBP. The settings on record: USP22_zf-UBP. The format is binding. How it is done:
(§1) Proteins were expressed in Escherichia coli (E.coli) BL21-Gold (DE3) bacteria. The cDNAs encoding N-terminal 6-histidine-glutathione S-transferase tagged (6xHis-GST), 6xHis-tagged or GST-tagged protein domains in pETM33, pETM11, pGEX6P1 expression vectors respectively, were obtained from Genescript or kindly provided by MRC-PPU (Suppl. Data 1) The bacteria were transformed with the plasmid and grew at 37 °C in 2YT (5 g/L NaCl, 16 g/L tryptone and 10 g/L yeast extract) supplemented with Kanamycin (30 μg/mL) until reaching an OD600 of 0.7. Protein expression was induced with 0.3 mM isopropyl β-D-1 thiogalactopyranoside (IPTG) for 18 h at 18 °C while shaking. For zinc-finger domains, 50 μM of ZnSO4 was added during expression. The bacterial cultures were pelleted for 15 minutes at 4000 x g at 4 °C and stored at −20 °C until purification. The pellets were resuspended in lysis buffer (1× phosphate-buffered saline (PBS), 0.5 % Triton-X, 5 mM MgCl2, 10 μg/mL lysozyme, cOmplete^TM EDTA-free protease inhibitor cocktail (Roche), 10 μg/mL DNAseI) and incubated for 1 h shaking at 4 °C. […] The supernatant was incubated with glutathione (GSH) Sepharose (Cytiva) or Ni2+ Sepharose (Cytiva) for 1 h at 4 °C while shaking. The beads with the bound protein were washed with 1x PBS and eluted with 10 mM reduced glutathione in 50 mM Tris pH 8.0. For fluorescence polarization experiments, the proteins were not eluted from the beads, and the 6xHis-GST tag was cleaved overnight on GSH Sepharose beads at 4 °C while shaking with PreScission Protease in cleavage buffer (50 mM Tris pH 7.5, 150 mM NaCl, 1 mM DTT). The sample containing the cleaved domain was separated from the tag and protease and buffer-exchanged to 50 mM sodium phosphate buffer pH 7.4 with 1 mM DTT using a PD-10 desalting column (Cytiva). The purity and size of the proteins were analyzed by SDS-PAGE electrophoresis.
(§2) The measurements were performed at room temperature in a non-binding black half area 96-well plate (Corning) with a total volume of 50 μL per well. Peptides were obtained from GeneCust (France) with >95% purity. FITC-labeled peptides (N-terminally FITC-labeled without spacer and C-terminally amidated) were dissolved in dimethyl sulfoxide (DMSO), and unlabeled peptides (N-terminally acetylated and C-terminally amidated) were dissolved in 50 mM phosphate buffer pH 7.4. Saturation measurements were performed using a serial dilution of the protein domains in phosphate buffer (25 μL) and the addition of 10 nM FITC-labeled peptide (in phosphate buffer supplemented with 2 mM DTT) (25 μL). […] All measurements were performed in three technical replicates. The data were analyzed using GraphPad Prism version 9.2.0 for MacOS (GraphPad Software, San Diego, California USA, www.graphpad.com). The saturation curves were fitted to the quadratic equation, and the displacement curves were fitted to a sigmoidal dose-response equation as described previously.

The target in a further assay is T3, USP11 DUSP-UBL domain (Homo sapiens, UniProt P51784).
T3 construct: USP11_UBL; P51784; UBL; 6xHis-GST (N, cleaved yes); made in house; host or cells: Escherichia coli BL21-Gold (DE3)
The experiment in a line: FP-based affinity measurements, USP11 DUSP-UBL. The settings on record: FP saturation, FITC-labeled peptide; technical triplicates; read-out: KD, USP11 DUSP-UBL, labeled peptide (direct binding). Format: binding. The protocol: as §1
as §2, with “The saturation curves were fitted to the quadratic equation, and the displacement curves were fitted to a sigmoidal dose-response equation as described previously.” left out

A further assay concerns the target T4, USP20 zf-UBP domain (Homo sapiens, UniProt Q9Y2K6).
T4 construct: USP20_UBP; Q9Y2K6; zf-UBP; 99; 6xHis-GST (N, cleaved yes); made in house; host or cells: Escherichia coli BL21-Gold (DE3)
Briefly: FP-monitored affinity measurements, USP20 zf-UBP. The format is binding.

In the next assay the test system is FLAG-USP33. The experiment in a line: IP-MS of FLAG-USP33 and variants vs empty vector. The format is cell-based, human. As to conditions: IP-MS. How it is done: For transfection, 1x10^6 HEK293 cells were seeded in 10 cm dishes with DMEM, 10% FBS, 1% L-G (without antibiotic) medium, incubated at 37 °C, with 5 % CO2 for 24 h. Cells were transfected with a transfection mix containing […] of Opti-MEM (Thermo Fisher Scientific), 20 μL of PEI stock (1 mg/mL) and […] of the desired cDNA. For co-transfection, 2.5 μg of DNA of each plasmid was used. The mix was vortexed for 15 s and incubated at room temperature for 15–20 min. The transfection mix was added to the dish and gently mixed. Plates were incubated at 37 °C for 36–48 h before harvesting. For USP33 constructs, 5 μM Bortezomib (proteasome inhibitor) was added 4 hours before harvesting the cells.
FLAG fusion proteins were immunoprecipitated from HEK293 cells transfected with plasmids encoding the protein of interest using the anti-FLAG M2 affinity gel from Sigma-Aldrich. Cell pellets were lysed with 100–200 μL/per dish lysis buffer (Pierce RIPA buffer, 1X protease inhibitor (Roche), 50 unit/μL of Benzonase Nuclease) rotating at 4 °C for 30–45 min. […] The cell lysate was clarified by centrifugation at 17,000 x g, at 4 °C for 12 min, and the supernatant was transferred to a clean, pre-chilled low-binding Eppendorf tube. […] The IP samples were centrifuged at 6500 x g at 4 °C for 30 s. The supernatant containing the unbound proteins was transferred to a clean tube. The resin was washed three times with 500 μL of TBS, centrifuged at 6500 x g at 4 °C for 30 s. The bound FLAG fusion protein was eluted with 100 μL of 150 ng/μL 3X FLAG peptide (Sigma) in TBS and incubated in the cold room for 1 h or overnight. The tube was centrifuged at 6500 x g at 4 °C for 30 s; the eluted proteins were transferred to a clean tube. The eluted proteins were prepared for analysis by western blot or Mass Spectrometry.
Immunoprecipitation (IP) was carried out as described above; four technical replicates of each IP condition were performed, and the empty vector was used as a negative control. The eluted protein was processed following the Strap-micro protocol (Protifi). The IP elution containing 1–100 μg protein was 1:1 mixed with 2X lysis buffer (10% SDS, 100 mM TEAB pH 8.5). […] Samples were vortexed, mixed with 165 μL of 100 mM TEAB in 90% methanol, and passed through an S-Trap micro column at 4000 g for 30 s to trap the proteins. The column was washed with 150 μL of 100 mM TEAB in 90% methanol (at 4,000 x g for 30 seconds) three times. The S-Trap column was centrifuged again and transferred to a clean 2 mL tube for digestion with 20 μL of digestion buffer (1 μg trypsin per 10 μg sample in 50 mM TEAB), at 37 °C overnight in a thermomixer without shaking. The digested peptides were eluted with […] of 50 mM TEAB in water, […] of 0.2 % formic acid in water, and […] of 50 % acetonitrile in water, centrifuging at 4000 x g for 1 min each time. The three elutions were pooled in a low-binding tube, placed on dry ice until frozen, dried in a SpeedVac vacuum (Thermo Scientific), and proceeded with the LCMS analysis.
Eluted peptides were resuspended in water supplemented with 0.015% dodecyl maltoside and 0.1% formic acid and were injected on a Vanquish Neo UHPLC System operating in trap and elute mode coupled to an Orbitrap Astral Mass Spectrometer (Thermo Fisher Scientific). […] Eluted peptides were analyzed using data-independent acquisition mode on the mass spectrometer.
Peptides were searched against the Uniprot Swissprot Human database (released on 02/01/2023) supplemented with the USP20 and USP33 mutants using DiaNN (v1.9.0)[62] operating in library-free mode. Data filtering and statistical analysis were carried out in Python (v3.9.0) using the packages pandas, numpy, sklearn, scipy, rpy2, Plotnine, and Plotly and R (v4.4.3) using the package limma.
Protein groups identified with a single peptide or quantified in fewer than three replicates in at least 1 condition were filtered out. […]

[1] abbreviates: USP33_UBP, FP displacement by unlabelled peptide, read-out: KD.
[2] abbreviates: USP20_UBP, FP displacement by unlabelled peptide, read-out: KD.
[3] abbreviates: FP displacement by unlabelled peptide.
[4] abbreviates: FP-monitored affinity measurement (Supplementary Fig. 4D).

Where two headings read alike, the source gives them in different places. Ends that are not written are not given here. Peptide text beside a SMILES is read from it. * marks the point of attachment. FITC = O=C1OC2(c3ccc(O)cc3Oc3cc(O)ccc32)c2ccc(NC(=S)*)cc21

T4 sequence (Q9Y2K6 4-99): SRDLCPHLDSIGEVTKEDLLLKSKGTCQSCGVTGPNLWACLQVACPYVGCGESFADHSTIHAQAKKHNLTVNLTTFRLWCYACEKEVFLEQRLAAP
T3 sequence (P51784 67-288): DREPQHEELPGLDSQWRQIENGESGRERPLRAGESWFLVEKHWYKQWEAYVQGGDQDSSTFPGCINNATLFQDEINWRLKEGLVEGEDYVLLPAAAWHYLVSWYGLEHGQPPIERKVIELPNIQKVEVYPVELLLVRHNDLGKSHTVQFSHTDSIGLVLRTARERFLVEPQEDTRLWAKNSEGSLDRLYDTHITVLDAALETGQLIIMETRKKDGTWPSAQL
Description for USP20 zf-UBP domain: (§3) The measurements were performed at room temperature in a non-binding black half area 96-well plate (Corning) with a total volume of 50 μL per well. […] All measurements were performed in three technical replicates. […] The saturation curves were fitted to the quadratic equation, and the displacement curves were fitted to a sigmoidal dose-response equation as described previously[68].
Description for USP33 zf-UBP domain: as §3

Take `CC(=O)N[C@@H](Cc1ccc(O)cc1)C(=O)N[C@@H](CCCCN)C(=O)N[C@@H](CCC(N)=O)C(=O)N[C@@H](CCC(N)=O)C(=O)N[C@@H](CCCNC(=N)N)C(=O)N[C@@H](CO)C(=O)N[C@@H](CC(=O)O)C(=O)N[C@@H](CC(C)C)C(=O)N[C@@H](C)C(=O)NCC(=O)N1CCC[C@H]1C(=O)N[C@H](C(=O)N[C@@H](CC(=O)O)C(N)=O)C(C)C` [APBA2_N334A]: at USP33 zf-UBP domain (setting [1]), the Kd – broadly, the equilibrium constant for the complex coming apart – came out at 112 µM.
As for `CC[C@H](C)[C@H](NC(=O)[C@H](Cc1c[nH]c2ccccc12)NC(=O)[C@H](CO)NC(=O)[C@H](CO)NC(=O)[C@H](Cc1c[nH]c2ccccc12)NC(=O)[C@@H]1CCCN1C(=O)[C@H](CCCCN)NC(=O)CNC(=O)[C@H](CC(C)C)NC(=O)[C@H](Cc1ccccc1)NC(=O)[C@H](C)NC(=O)[C@H](CCC(=O)O)NC(=O)[C@@H]1CCCN1C(=O)[C@H](CO)NC(=O)[C@@H]1CCCN1C(=O)[C@@H](NC(=S)Nc1ccc2c(c1)C(=O)OC21c2ccc(O)cc2Oc2cc(O)ccc21)C(C)C)C(=O)N[C@@H](CC(=O)O)C(=O)N[C@@H](C)C(=O)N[C@@H](C)C(=O)N[C@@H](CCCCN)C(=O)N[C@@H](CC(C)C)C(=O)N[C@@H](Cc1c[nH]cn1)C(N)=O` [FITC-ATXN7L1_36-57] ({FITC}-VPSPEAFLGKPWSSWIDAAKLH-NH2), the Kd at USP22 zf-UBP domain (direct FP titration (saturation) of the FITC-labelled peptide) turned out to be 1 µM.
With `CC[C@H](C)[C@H](NC(=O)[C@H](Cc1c[nH]c2ccccc12)NC(=O)[C@H](CC(=O)O)NC(=O)[C@@H]1CCCN1C(=O)[C@H](Cc1ccc(O)cc1)NC(=O)[C@@H](NC(=O)[C@@H](NC(=O)[C@H](C)NC(=O)[C@H](CO)NC(=S)Nc1ccc2c(c1)C(=O)OC21c2ccc(O)cc2Oc2cc(O)ccc21)C(C)C)[C@@H](C)O)C(=O)NCC(=O)N[C@@H](CCC(N)=O)C(=O)N[C@@H](CO)C(=O)N[C@@H](Cc1ccc(O)cc1)C(=O)N[C@@H](CO)C(=O)N[C@@H](CCC(=O)O)C(=O)N[C@H](C(N)=O)C(C)C` [FITC-ORA1] ({FITC}-SAVTYPDWIGQSYSEV-NH2), the Kd on USP11 DUSP-UBL domain was > 290 µM.
For AQDSPIDFHLQSWMNN [CEP192], the Kd was determined as 37.1 µM on USP20 zf-UBP domain (setting [2]) and 14.1 µM at USP33 zf-UBP domain (setting [1]).
In the case of “Ac-VPSLDDFAGQSWSSWVE-NH2 [ATXN7L2_18-34]”, the Kd at USP22 zf-UBP domain (setting [3]) is 19.3 µM.
The same measure, in the same setting: the result for “Ac-VPSLDDFAGQSWSSWVERADLP-NH2 [ATXN7L2_18-39]” reads 2.91 µM.
The same measure, in the same setting: the result for “Ac-VPSPEAFLGKPWSSWID-NH2 [ATXN7L1_36-52]” reads 11 µM; that for “Ac-VPSPEAFLGKPWSSWIDAAKLH-NH2 [ATXN7L1_36-57]”, 0.1 µM.
Ac-YEKVKRRLDLDID-NH2 [CCP110]: the values for the Kd on USP20 zf-UBP domain (setting [2]) and on USP33 zf-UBP domain (setting [1]) were ~505 µM and ~260 µM, respectively.
For the compound EKVKRRLDLDID [CCP110_582-593], the dissociation constant Kd on USP20 zf-UBP domain (read-out: KD, USP20 zf-UBP) was > 500 µM; on USP33 zf-UBP domain (read-out: KD, USP33 zf-UBP), > 250 µM.
In the case of VWA8, the log2_FC in the assay on FLAG-USP33 (FLAG-USP33-ΔDUSP2 vs EV, comparison bh_2 Sample_Limma_ImpMedInt_USP33_DUSP2_domain/EV) is reported as 2.1493; with FLAG-USP33 (FLAG-USP33-ΔUBP vs EV, comparison bh_2 Sample_Limma_ImpMedInt_USP33_UBP_domain/EV), 2.322.
For the compound YPFQPGRMALESQSPG [USP19], the Kd at USP20 zf-UBP domain (setting [2]) is ~162 µM; on USP33 zf-UBP domain (setting [1]), 40.6 µM.
Taken in the same sequence, the figures for YTNSSGKMALNSPQPG [IRAG1] were 9.02 µM and 7.86 µM.
Consider “ubiquitin C-terminus: ubiquitin C-terminal peptide (YLRLRGG) [reference compound]”, for which, in the assay with USP20 zf-UBP domain (setting [4]), the “binding of the ubiquitin C-terminus to USP20 zf-UBP” value is “do not bind the ubiquitin C-terminus with measurable affinity”. Also, the equilibrium dissociation constant (Kd) with USP20 zf-UBP domain (setting [2]) is > 50 µM. Further, the “binding of the ubiquitin C-terminus to USP33 zf-UBP” value with USP33 zf-UBP domain (setting [4]) is on record as “do not bind the ubiquitin C-terminus with measurable affinity”.
